In patent publication US4719224A, “Anti-inflammatory and analgesig thiophene acetic acid derivatives, compositions, and method of use therefor” (Roussel Uclaf, priority 1985, dated 1988):
Like-named read-outs stand apart in the source and are kept apart here.

How the values were obtained:
cyclo-oxygenase = target: T1, cyclo-oxygenase (Bos taurus, UniProt O62664); assay: Inhibition of biosynthesis of prostaglandins in vitro (microsomal preparation of seminal vesicules); type: biochemical, bulls
T1 construct: a cyclo-oxygenase contained in a microsomal preparation of seminal vesicules of bulls; from tissue; host or cells: bull seminal vesicles, microsomal preparation
T1 sequence (O62664 25-600): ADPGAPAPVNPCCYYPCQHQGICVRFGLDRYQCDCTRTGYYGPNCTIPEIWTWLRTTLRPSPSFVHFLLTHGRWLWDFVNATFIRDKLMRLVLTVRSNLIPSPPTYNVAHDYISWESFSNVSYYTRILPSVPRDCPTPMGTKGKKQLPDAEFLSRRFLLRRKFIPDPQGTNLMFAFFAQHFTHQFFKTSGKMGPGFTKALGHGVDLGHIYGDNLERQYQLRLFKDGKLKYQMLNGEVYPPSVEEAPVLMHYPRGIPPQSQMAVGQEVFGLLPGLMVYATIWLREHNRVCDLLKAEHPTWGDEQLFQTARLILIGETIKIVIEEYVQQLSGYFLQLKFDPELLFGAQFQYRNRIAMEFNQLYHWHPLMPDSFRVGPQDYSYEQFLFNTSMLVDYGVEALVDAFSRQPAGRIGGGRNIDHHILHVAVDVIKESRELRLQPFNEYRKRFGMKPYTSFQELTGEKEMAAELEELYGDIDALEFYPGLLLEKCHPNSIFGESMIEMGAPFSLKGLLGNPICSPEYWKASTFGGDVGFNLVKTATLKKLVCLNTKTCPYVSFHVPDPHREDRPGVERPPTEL
Procedure: B. Inhibition of biosynthesis of prostaglandins in vitro
Arachidonic acid is converted into prostaglandins (PGs) of the […] by a cyclo-oxygenase contained in a microsomal preparation of seminal vesicules of bulls by the method of Tagekuchi et al [Biochemistry, Vol. 10 (1971), P. 2372]. The precursor at a concentration of 15×10^-6 M was incubated in the presence of a fixed concentration of proteins of the seminal vesicule preparation and the test product at 37° C. for 30 minutes. The reaction was stopped by immersion into boiling water for one minute and then centrifugation. The prostaglandins were determined by radio-immunoassay by the procedure of Dray et al [European J. Clin. Invest., Vol. 5 (1975), p. 311] to specifically evaluate for PGE2 and PGF2 α. The CI50 dose or dose that inhibited the activity by 50% was calculated for each of the two prostaglandins and was 2×10^-5 M for the compound of Example 1.

[1] = tested on: adjuvant arthritis (rear paw volume increase); assay: Anti-inflammatory activity, adjuvant arthritis (preventive treatment); type: in vivo; settings: Rattus norvegicus; male rats, oral, day 0 to day 17, Freund type adjuvant; read-out: DA50 (dose that diminished by 50% the volume increase of the rear paws)
Procedure: A. Anti-inflammatory Activity-adjuvant arthritis (preventive treatment)
The injection of Freund type adjuvant into the rear paw of a rat provokes the rapid appearance of a primary inflammatory lesion in that paw and then after a latent period of 13 to 15 days, the appearance of a secondary arthritic condition occurs in the other rear paw The test was performed on male rats about 40 to 50 days old who received an intraplantary injection of 0.1 ml of Freund type adjuvant (suspension of 6 mg per ml of dead mycobacterium butyrium in vaseline oil). The rats received the test compound orally on day 0 (day of injection of adjuvant) until the day before they were killed (day 17). […] The activity of the test compounds was determined by the increase in the injected rear paw volume (primary and secondary inflammation) and the non-injected rear paw (secondary inflammation) as compared to the average volume of the corresponding paws of the arthritic control animals. The DA50 or the dose that diminished by 50% the volume increase of the rear paws of the treated animals as compared to the control animals was determined to be 8 mg/kg for the compound of Example 1.

5-lipoxygenase = target: T2, 5-lipoxygenase (Rattus norvegicus, UniProt P12527); assay: Dosage of 5-lipoxygenase of rat neutrophiles (Leucotriene B4 by radioimmunoassay); type: cell-based; settings: rat peritoneal neutrophiles, 10 μM ionophore A 23187, Leucotriene B4; read-out: CI50 5-lipoxygenase
T2 construct: Dosage of 5-lipoxygenase of rat neutrophiles; endogenous in cells; host or cells: rat peritoneal neutrophils elicited with sodium caseinate
T2 sequence (P12527 1-673): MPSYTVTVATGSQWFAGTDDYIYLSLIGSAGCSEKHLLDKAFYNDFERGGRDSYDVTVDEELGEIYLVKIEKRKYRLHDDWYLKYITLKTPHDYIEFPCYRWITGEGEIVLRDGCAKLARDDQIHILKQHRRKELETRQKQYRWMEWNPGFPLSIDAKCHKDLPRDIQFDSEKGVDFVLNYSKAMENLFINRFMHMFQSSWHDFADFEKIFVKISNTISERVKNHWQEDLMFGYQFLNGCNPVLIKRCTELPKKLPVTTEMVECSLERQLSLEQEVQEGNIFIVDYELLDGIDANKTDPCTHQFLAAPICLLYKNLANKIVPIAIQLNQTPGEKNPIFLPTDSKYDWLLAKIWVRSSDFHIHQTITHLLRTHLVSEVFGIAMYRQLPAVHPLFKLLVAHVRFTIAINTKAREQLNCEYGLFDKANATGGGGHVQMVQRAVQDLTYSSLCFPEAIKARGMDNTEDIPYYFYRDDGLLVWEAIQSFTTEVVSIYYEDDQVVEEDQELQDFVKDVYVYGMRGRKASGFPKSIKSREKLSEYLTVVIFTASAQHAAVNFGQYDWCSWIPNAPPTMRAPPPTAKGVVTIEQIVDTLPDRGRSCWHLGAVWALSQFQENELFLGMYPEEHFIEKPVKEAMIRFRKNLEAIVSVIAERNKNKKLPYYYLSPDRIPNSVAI
Procedure: 3. Dosage of 5-lipoxygenase of rat neutrophiles
Peritoneal neutrophile (5×10^6 cells/ml) obtained after intraperitoneal injection of 12% sodium caseinate were preincubated at 37° C. for 5 minutes in the presence of the test product or solvent used. The incubation was effected under the same conditions in the presence of 10 μM of ionophore A 23187 and […] of calcium chloride. After 5 minutes, the incubates were placed in ice and centrifuged at 3000 g.

| IC50 (cyclo-oxygenase; arachidonic acid 15×10^-6 M, 37° C., 30 minutes, PGE2 and PGF2 α by radio-immunoassay, read-out: CI50 (dose that inhibited the activity by 50%), for each of PGE2 and PGF2 α) | IC50 (5-lipoxygenase) | IC50 (cyclo-oxygenase; table value, read-out: CI50 cyclooxygenase) | Compound | ED50 [1] |
| --- | --- | --- | --- | --- |
| 20 µM | 10 µM | – | CC(C(=O)O)c1cc2c(s1)C1(CCCCC1)CC2 (stereo not drawn) [Example 1, 4',5'-dihydro-α'-methyl-spiro[cyclohexane-1,6']-6H-[cyclopenta (b)thiophene]-2'-acetic acid] | 8 mg/kg |
| – | 0.5 µM | 200 µM | CC(C(=O)N(C)O)c1cc2c(s1)C1(CCCCC1)CC2 (stereo not drawn) [Example 4, 4',5'-dihydro-α',N-dimethyl-N-hydroxy-spiro[cyclohexane-1,6']-6H-[cyclopenta (b)thiophene]-2-acetamide] | – |
